{"source": "patent US20240041840A1", "about": "(Areteia Therapeutics, Inc., priority 2020, published 2024)", "key": {"[1]": {"tested_on": "subjects with eosinophilic asthma", "text": "Evaluation of Safety: Physical examination, vital signs (systolic and diastolic blood pressure, respiratory rate, heart rate, and temperature), body weight, 12-lead ECG, clinical laboratory evaluations (hematology, blood chemistry, and urinalysis), pregnancy testing, adverse event monitoring, and concomitant medication were monitored throughout the study. […] A neutropenia case report form was utilized during the study to capture detailed clinical information concurrent with any laboratory events of neutropenia."}, "[2]": {"tested_on": "eosinophil peroxidase (EPX)", "conditions": "worded as embodiment", "method": "Eosinophil peroxidase (EPX) is a granule protein uniquely secreted by eosinophils which can be detected and quantified using an enzyme-linked immunosorbent assay (ELISA). EPX is measured from mucosal swabs or sputum samples. […] In embodiments, normal nasal EPX levels are less than about 10 ng/mg of total protein, whereas moderate to severe asthma of the eosinophilic phenotype may be diagnosed as having nasal EPX levels greater than about 10 ng/mg of total protein. […] Normal induced sputum EPX levels may be less than about 200 ng/mL/g recovered sputum, whereas moderate to severe asthma of the eosinophilic phenotype is diagnosed as having induced sputum EPX levels greater than about 200 ng/mL/g recovered sputum.\n(§1) Evaluation of Efficacy: Blood eosinophil count, changes in pulmonary function (FEV1), Asthma Control Questionnaire (ACQ-6), Asthma Control Questionnaire (ACQ-7), Asthma Quality of Life Questionnaire (AQLQ), exhaled nitric oxide, pharyngeal and nasal eosinophil peroxidase were collected periodically during the study."}, "[3]": {"tested_on": "subjects with eosinophilic asthma", "conditions": "for ACQ-6 Change from Baseline LSM / ACQ-6 Difference vs Placebo LSM (95% CI): 12 weeks", "text": "The ACQ cutoff for well-controlled asthma is a score of about 0.75, and the ACQ cutoff for uncontrolled asthma is a score of about ≥1.5. An ACQ score change of ≥0.5 is considered clinically significant.\nas §1\nJuniper Asthma Control Six Point Questionnaire (ACQ-6)—Baseline and visits 5, 8, 11 and 14. The ACQ-6 will be used to assess improvements in asthma symptom control (6). The ACQ-6 was originally validated in participants with asthma aged 17 to 90 years (2, 3, and is one of several asthma control measures recommended by GINA Guidelines). The ACQ-6 consists of 6 items: 5 items on symptom assessment, 1 item on rescue bronchodilator use. The ACQ-6 has been fully validated, including a minimal important difference (MID) or smallest change that can be considered clinically important (0.5). The ACQ-6 will be self-administered at the clinic (questions 1-6 only) and it only takes a few minutes to complete. Participants are asked how they have been feeling during the past week and to score each item on a […] response scale, where 0 indicates ‘totally controlled’ and 6 indicates ‘severely uncontrolled.’ The total score is calculated as the mean of all questions. The questionnaire should always be completed before any other assessments."}, "[4]": {"tested_on": "subjects with eosinophilic asthma", "method": "Pulmonary function is measured by performing a spirometry, which measures forced expiratory volume in is (FEV1), the volume of air moved in the first second of exhalation, this is a well-accepted measure of asthma. Forced vital capacity (FVC) is the total volume of air exhaled during the entire forced expiratory volume (FEV) test. The FEV1/FVC ratio is a calculated measure that may provide a more specific measure of bronchoconstriction, independent of processes such as air trapping. Pulmonary function testing can be tested pre-bronchodilator (after waiting a sufficient time so that all bronchodilator medications have cleared) or post-bronchodilator, typically 15-30 minutes after inhaling a short-acting bronchodilator, such as albuterol. Bronchodilator reversibility (BDR) is calculated and assessed by analyzing FEV1 pre- and post-bronchodilator, and calculating the change both as absolute (ml) and percentage change.\nAlthough some of the responsible factors are modifiable, such as suboptimal medication adherence and poor inhaler technique, others reflect intrinsic deficiencies in available asthma pharmacotherapy. This deficiency is particularly apparent in patients prone to severe asthma exacerbations. […] However, all of the biologics require parenteral administration. […] A 4-arm dose ranging placebo-controlled design was chosen to provide a range of drug exposure. Blood eosinophil lowering was chosen as the primary endpoint to facilitate identification of the lowest effective dose for use in future clinical development. The Primary Assessment Period of 12 weeks was chosen to provide adequate time to observe both pharmacodynamic endpoints, such as eosinophil lowering, as well as the clinical endpoints that may improve as a consequence of eosinophil lowering (FEV1, FVC, ACQ-6, ACQ-7, and AQLQ). The 12-week Eosinophil Recovery Period was chosen based on expected recovery to near baseline count in most subjects.", "remark": "listed apart in the source"}, "[5]": {"conditions": "75 mg/day, Week 12, efficacy population N = 22"}, "[6]": {"conditions": "150 mg/day, Week 12, efficacy population N = 24"}, "[7]": {"conditions": "300 mg/day, Week 12, efficacy population N = 28"}}, "note": "Where two headings read alike, the source gives them in different places.", "data": [{"compound": "CCCN[C@@H]1CCc2nc(N)sc2C1", "note": "[dexpramipexole, (6R)-2-amino-4,5,6,7-tetrahydro-6-(propylamino) benzothiazole]", "values": [{"measurement": "Subjects with AEC ≤50 cells/pL, %", "setting": "blood eosinophils; [5]", "value": "(22.7%)"}, {"measurement": "Subjects with AEC ≥50% reduction from Baseline to Week 12, %", "setting": "blood eosinophils; [5]", "value": "(50.07%)"}, {"measurement": "Subjects with AEC ≤50 cells/pL, %", "setting": "blood eosinophils; [6]", "value": "(37.5%)"}, {"measurement": "Subjects with AEC ≥50% reduction from Baseline to Week 12, %", "setting": "blood eosinophils; [6]", "value": "(62.5%)"}, {"measurement": "Subjects with AEC ≤50 cells/pL, %", "setting": "blood eosinophils; [7]", "value": "(42.9%)"}, {"measurement": "Subjects with AEC ≥50% reduction from Baseline to Week 12, %", "setting": "blood eosinophils; [7]", "value": "(57.1%)"}, {"measurement": "Reduction in AEC", "setting": "blood eosinophils; Week 12 compared with baseline, up to 300 mg/day", "value": "≤ 80", "unit": "%"}, {"measurement": "Dexpramipexole treated subjects with a greater than or equal to 50% reduction in AEC", "setting": "blood eosinophils; all dose groups", "value": "approximately 60%"}, {"measurement": "Number of hematologic responders compared with placebo", "setting": "blood eosinophils; blood eosinophil count of ≤50 cells/μL at week 12, dose-dependent", "value": "significantly increased"}, {"measurement": "Safety and tolerability", "setting": "[1]; 300 mg/day and 150 mg/day doses, KNS-760704-AS201 trial", "value": "Lastly, the excellent safety and tolerability of the above doses in the KNS-760704-AS201 trial and in previous"}, {"measurement": "Tolerability", "setting": "[1]; across all dose levels (75, 150, 300 mg/day, 12 weeks)", "value": "well-tolerated"}, {"measurement": "Reduction of the level of nasal EPX", "setting": "[2]; daily dose of about 75 mg", "value": "about 36%"}, {"measurement": "Reduction of the level of nasal EPX", "setting": "[2]; daily dose of about 150 mg", "value": "about 83%"}, {"measurement": "Reduction of the level of nasal EPX", "setting": "[2]; daily dose of about 300 mg", "value": "about 89%"}, {"measurement": "ACQ-6 Change from Baseline LSM", "setting": "[3]; 75 mg/day", "value": "−0.419"}, {"measurement": "ACQ-6 Difference vs Placebo LSM (95% CI)", "setting": "[3]; 75 mg/day", "value": "−0.0276 (−0.560, 0.505)"}, {"measurement": "ACQ-6 Change from Baseline LSM", "setting": "[3]; 150 mg/day", "value": "−0.437"}, {"measurement": "ACQ-6 Difference vs Placebo LSM (95% CI)", "setting": "[3]; 150 mg/day", "value": "−0.0457 (−0.575, 0.484)"}, {"measurement": "ACQ-6 Change from Baseline LSM", "setting": "[3]; 300 mg/day", "value": "−0.655"}, {"measurement": "ACQ-6 Difference vs Placebo LSM (95% CI)", "setting": "[3]; 300 mg/day", "value": "−0.264 (−0.772, 0.245)"}, {"measurement": "ACQ-6 scores", "setting": "[3]; across several dose groups, 12 weeks (Table 13)", "value": "improved"}, {"measurement": "Pre-Bronchodilator FVC, % change from Baseline, mean", "setting": "[4]; 75 mg/day, Week 4", "value": 2.82, "unit": "%"}, {"measurement": "Pre-bronchodilator FVC change from Baseline LSM", "setting": "[4]; 75 mg/day, Week 4", "value": 0.0925}, {"measurement": "Pre-bronchodilator FVC difference versus Placebo LSM", "setting": "[4]; 75 mg/day, Week 4", "value": 0.0785}, {"measurement": "Pre-Bronchodilator FVC, % change from Baseline, mean", "setting": "[4]; 75 mg/day, Week 8", "value": 7.17, "unit": "%"}, {"measurement": "Pre-bronchodilator FVC change from Baseline LSM", "setting": "[4]; 75 mg/day, Week 8", "value": 0.155}, {"measurement": "Pre-bronchodilator FVC difference versus Placebo LSM", "setting": "[4]; 75 mg/day, Week 8", "value": 0.149}, {"measurement": "Pre-Bronchodilator FVC, % change from Baseline, mean", "setting": "[4]; 75 mg/day, Week 12", "value": 7.93, "unit": "%"}, {"measurement": "Pre-bronchodilator FVC change from Baseline LSM", "setting": "[4]; 75 mg/day, Week 12", "value": 0.181}, {"measurement": "Pre-bronchodilator FVC difference versus Placebo LSM", "setting": "[4]; 75 mg/day, Week 12", "value": 0.140}, {"measurement": "Pre-Bronchodilator FVC, % change from Baseline, mean", "setting": "[4]; 75 mg/day, Week 16 or Week 18", "value": 13.4, "unit": "%"}, {"measurement": "Pre-bronchodilator FVC change from Baseline LSM", "setting": "[4]; 75 mg/day, Week 16 or Week 18", "value": 0.297}, {"measurement": "Pre-bronchodilator FVC difference versus Placebo LSM", "setting": "[4]; 75 mg/day, Week 16 or Week 18", "value": 0.329}, {"measurement": "Pre-Bronchodilator FVC, % change from Baseline, mean", "setting": "[4]; 150 mg/day, Week 4", "value": 3.54, "unit": "%"}, {"measurement": "Pre-bronchodilator FVC change from Baseline LSM", "setting": "[4]; 150 mg/day, Week 4", "value": 0.122}, {"measurement": "Pre-bronchodilator FVC difference versus Placebo LSM", "setting": "[4]; 150 mg/day, Week 4", "value": 0.108}, {"measurement": "Pre-Bronchodilator FVC, % change from Baseline, mean", "setting": "[4]; 150 mg/day, Week 8", "value": 5.28, "unit": "%"}, {"measurement": "Pre-bronchodilator FVC change from Baseline LSM", "setting": "[4]; 150 mg/day, Week 8", "value": 0.152}, {"measurement": "Pre-bronchodilator FVC difference versus Placebo LSM", "setting": "[4]; 150 mg/day, Week 8", "value": 0.146}, {"measurement": "Pre-Bronchodilator FVC, % change from Baseline, mean", "setting": "[4]; 150 mg/day, Week 12", "value": 3.63, "unit": "%"}, {"measurement": "Pre-bronchodilator FVC change from Baseline LSM", "setting": "[4]; 150 mg/day, Week 12", "value": 0.0714}, {"measurement": "Pre-bronchodilator FVC difference versus Placebo LSM", "setting": "[4]; 150 mg/day, Week 12", "value": 0.0304}, {"measurement": "Pre-Bronchodilator FVC, % change from Baseline, mean", "setting": "[4]; 150 mg/day, Week 16 or Week 18", "value": 7.33, "unit": "%"}, {"measurement": "Pre-bronchodilator FVC change from Baseline LSM", "setting": "[4]; 150 mg/day, Week 16 or Week 18", "value": 0.143}, {"measurement": "Pre-bronchodilator FVC difference versus Placebo LSM", "setting": "[4]; 150 mg/day, Week 16 or Week 18", "value": 0.175}, {"measurement": "Pre-Bronchodilator FVC, % change from Baseline, mean", "setting": "[4]; 300 mg/day, Week 4", "value": 1.91, "unit": "%"}, {"measurement": "Pre-bronchodilator FVC change from Baseline LSM", "setting": "[4]; 300 mg/day, Week 4", "value": 0.0983}, {"measurement": "Pre-bronchodilator FVC difference versus Placebo LSM", "setting": "[4]; 300 mg/day, Week 4", "value": 0.0844}, {"measurement": "Pre-Bronchodilator FVC, % change from Baseline, mean", "setting": "[4]; 300 mg/day, Week 8", "value": 11.5, "unit": "%"}, {"measurement": "Pre-bronchodilator FVC change from Baseline LSM", "setting": "[4]; 300 mg/day, Week 8", "value": 0.322}, {"measurement": "Pre-bronchodilator FVC difference versus Placebo LSM", "setting": "[4]; 300 mg/day, Week 8", "value": 0.316}, {"measurement": "Pre-Bronchodilator FVC, % change from Baseline, mean", "setting": "[4]; 300 mg/day, Week 12", "value": 8.95, "unit": "%"}, {"measurement": "Pre-bronchodilator FVC change from Baseline LSM", "setting": "[4]; 300 mg/day, Week 12", "value": 0.257}, {"measurement": "Pre-bronchodilator FVC difference versus Placebo LSM", "setting": "[4]; 300 mg/day, Week 12", "value": 0.216}, {"measurement": "Pre-Bronchodilator FVC, % change from Baseline, mean", "setting": "[4]; 300 mg/day, Week 16 or Week 18", "value": 9.11, "unit": "%"}, {"measurement": "Pre-bronchodilator FVC change from Baseline LSM", "setting": "[4]; 300 mg/day, Week 16 or Week 18", "value": 0.267}, {"measurement": "Pre-bronchodilator FVC difference versus Placebo LSM", "setting": "[4]; 300 mg/day, Week 16 or Week 18", "value": 0.299}]}]}
